Marks after values point to notes of the source that are not given here. Square brackets hold non-standard residues; d marks the D form. Peptide text beside a SMILES is read from it. 12Ado = NCCCCCCCCCCCC(=O)O
Legend:
[1] = test system: Escherichia coli ATCC 8739; test: Antimicrobial assay, microdilution method (MIC; % death fitted to Hill equation); assay type: cell-based; details: for Hill coefficient n, Gram −ve (E. coli 8739): Hill fit of % death after 18 h incubation vs peptide concentration; for EC50: Hill fit of % death after 18 h incubation, peptide concentration for 50% death, peptides tested in μM, unit inferred, read-out: half saturation constant K, Gram −ve (E. coli 8739)
Description: (§1) Antimicrobial activity of peptides against Gram-positive (Staphylococcus aureus ATCC 25923, S. aureus ATCC 6538P) and Gram-negative (Escherichia coli ATCC 25922, E. coli ATCC 8739) bacteria were determined by microdilution method. Bacterial cultures were grown in Mueller–Hinton (MH) broth at 37°C for 18 h on a shaker to obtain an OD600 nm of 0.8. The cultures were diluted in MH broth to obtain a cell density of 10^5-10^6 c.f.u/ml. The peptides were serially diluted in MH broth. The serially diluted peptides were inoculated with bacterial cultures in 1:1 ratio in sterile 96-well microtiter plates. A bovine myeloid antimicrobial peptide, BMAP28(1–18), was used as the positive control. The peptides were tested for antimicrobial activity in the range from 1 to 100 μM. The MICs of the peptides were determined by OD600 nm measurements after 18 h of incubation at 37°C. Bacterial strains were purchased from National Collection of Industrial Microorganisms, National Chemical Laboratories, Pune, India. The percentage death evaluated for S. aureus ATCC 25923 and E. coli ATCC 8739 after 18 h incubation was fitted to a Hill equation and the parameters namely Hill coefficient (n) and the half-saturation constant (K) were evaluated (Details in Supplementary File).
(§2) The % death value after 18h incubation of the organisms (E. coli ATCC 8739 and S. aureus ATCC 25923) with the peptides was fitted using the Hill equation: […]
(§3) The percentage death was fitted to a sigmoidal input-output relationship through Hill's Equation as given below.
(§4) Here, Y is the normalized percentage death taking values in the range [0,1] and X is the concentration of the antimicrobial peptide. The data for value of Y was obtained through experiments. It can be noted that the Hill's Equation has two parameters namely, n and K, Hill's Coefficient and Half Saturation Constant, also referred to as K0.5. The values of the parameters are specific to a system. The Hill Equation can be linearized as follows.
(§5) The linear equation was fitted by plotting LHS of the above equation versus ln(X). The slope of the best fit line equation (linear regression) will yield the value of Hill's coefficient and the value of the intercept can be further used to evaluate the value of the half saturation constant, K. The Hill coefficient (n) determines the sensitivity of the response (steepness of the sigmoidal curve) and the half saturation constant (K) determines the threshold input needed for the response (equivalent to EC50 value).

[2] = test system: Staphylococcus aureus ATCC 25923; test: as above; assay type: cell-based; details: for Hill coefficient n, Gram +ve (S. aureus 25923): Hill fit of % death after 18 h incubation vs peptide concentration; for EC50: Hill fit of % death after 18 h incubation, peptide concentration for 50% death, peptides tested in μM, unit inferred, read-out: half saturation constant K, Gram +ve (S. aureus 25923)
Description: as §1, §2, §3, §4, §5

human RBCs = test: Cytotoxicity assay against human erythrocytes (hemolysis); assay type: cell-based; details: pH 7.4
Description: Hemolysis was determined by incubating 10% (v/v) suspension of human RBCs in PBS (pH 7.4) with different concentrations of peptides [BMAP28(1–18), P1, and P1m] ranging from 1.56 to 100 μM at 37°C for 1 h. RBCs incubated with 0.1% Triton X-100 was used as the positive control and RBCs incubated with PBS was used as blank. The incubated mixtures were centrifuged at 500 × g for 5 min. The hemolytic activity of the peptides was determined by measuring the absorbance of the supernatant at 541 nm. The percent hemolysis was calculated using the equation:
H=(absorbance of sample−absorbance of blank/absorbance of positive control−absorbance of blank)×100
The percentage hemolysis (H) was fitted using a Hill function with respect to the peptide concentration.
The % hemolysis was fitted using Hill equation to obtain n and K values. These values are also referred in Table 4 in the main text.

S. aureus ATCC 25923 = test: Killing kinetics assay (time-kill, first order death rate constant); assay type: cell-based, Staphylococcus aureus; details: for behavior of the kinetic (death rate) constant as a function of peptide concentration: S. aureus time-kill, concentrations up to 50 μM; for Hills coefficient of death rate constant vs peptide concentration (initial saturating phase) / half saturation constant of death rate constant vs peptide concentration (initial saturating phase): fit Equations 1-3, S. aureus ATCC 25923
Description: Overnight grown culture (S. aureus ATCC 25923) was diluted in fresh MH broth and allowed to grow to obtain OD600 nm of 0.8. The culture was diluted in MH broth to obtain a cell density of 10^5-10^6 c.f.u/ml and was incubated with the peptides at various concentrations within the MIC range for each peptide [BMAP28(1–18), P1, and P1m] till a highest concentration of 50 μM. Aliquots were drawn at specific time intervals and plated after dilution on MH agar plates. The plates were incubated at 37°C for 24 h to obtain viable colonies for calculating the initial death rates of the peptides. The kinetic rate constant was determined by evaluation of c.f.u count at various time points ranging from 10 to 45 min. First order death rate constant was determined by plotting log(c.f.u) vs. time and the slope of linear fit yielded the death rate constant. Four to five time points were used to determine the rate constant. Only two time points were considered for death rate constant at very high concentration (50 μM) as complete killing occurred in the first 15 min.
To further study the effect of mutation on behaviour of peptides, the first order rate constant for the death of S. aureus ATCC 25923 was determined by performing time-kill assays using BMAP28(1-18), P1 and P1m. The following equations were obtained by the fit.
In the first phase, the rate constant saturated to about 28.5 h^-1 up to a peptide concentration of 30µM. […] The behaviour of the rate constant was captured as a product of two functions, namely, an initial region represented by Hills Equation indicating a saturating behaviour, and exponential increase post saturation (Equation 1-3). […] A Hills coefficient greater than 2 indicates a sensitive response requiring only about less than 9 fold change in the concentration to reach saturation. But a lower half saturation constant for BMAP28(1-18) indicates higher affinity of binding of the peptides to the cell membrane for BMAP28(1-18) compared to that for P1m. […] This dramatic effect was caused due to a single change in the residue of an amino-acid. It may be possible that the second phase for P1 may occur at a higher concentration of peptide.
The initial rate constant was determined by fitting the first order death kinetics. The CFU (C) of the organism/cell was determined experimentally in time. The first order rate constant, k, was evaluated by linear fitting the equation given below: […]

[3] = test system: Escherichia coli ATCC 25922; test: Antimicrobial assay, microdilution method (MIC); assay type: cell-based; details: MH broth, 10^5-10^6 c.f.u/ml, 18 h, 37°C, OD600 nm, tested 1 to 100 μM, average range from triplicates of three independent experiments
Description: as §1

[4] = test system: Staphylococcus aureus ATCC 6538P; test: Antimicrobial assay, microdilution method (MIC); assay type: cell-based; details: value marked *: 50% inhibition, MH broth, 18 h, 37°C, OD600 nm, triplicates of three independent experiments
Description: as §1

[5] = value marked *: 50% inhibition, microdilution, MH broth, 18 h, 37°C, OD600 nm, triplicates of three independent experiments
[6] = microdilution, MH broth, 10^5-10^6 c.f.u/ml, 18 h, 37°C, OD600 nm, tested 1 to 100 μM, average range from triplicates of three independent experiments

Molecule	Hill coefficient n, Gram −ve (E. coli 8739) [1]	EC50 [1]	Hill coefficient n, Gram +ve (S. aureus 25923) [2]	EC50 [2]	half saturation constant K, Human RBCs (human RBCs)	behavior of the kinetic (death rate) constant as a function of peptide concentration (S. aureus ATCC 25923)	Hills coefficient of death rate constant vs peptide concentration (initial saturating phase) (S. aureus ATCC 25923)	half saturation constant of death rate constant vs peptide concentration (initial saturating phase) (S. aureus ATCC 25923)	MIC, E. coli 25922 [3]	MIC, S. aureus 6538 P (* 50% inhibition) [4]	MIC, E. coli 8739 (* 50% inhibition) [1, 5]	MIC, S. aureus 25923 (* 50% inhibition) [2, 5]	MIC, E. coli 8739 [1, 6]	MIC, S. aureus 25923 [2, 6]	time sufficient to reduce the cell number by half (S. aureus ATCC 25923; at 50µM of the peptide)	death rate constant at 50µM of the peptide (S. aureus ATCC 25923; first order, slope of log(c.f.u) vs time, 50 µM, two time points)
CC[C@H](C)[C@H](NC(=O)CNC(=O)[C@H](CC(C)C)NC(=O)[C@@H](NC(=O)[C@@H](NC(=O)[C@H](CCCCN)NC(=O)[C@H](CCCNC(=N)N)NC(=O)[C@H](C)NC(=O)[C@H](CC(C)C)NC(=O)[C@H](C)NC(=O)[C@H](CCCNC(=N)N)NC(=O)[C@H](CC(C)C)NC(=O)[C@H](CC(C)C)NC(=O)[C@@H](NC(=O)CCCCCCCCCCCN)C(C)C)[C@@H](C)CC)[C@@H](C)O)C(=O)N[C@@H](CCCCN)C(=O)N[C@@H](CCCCN)C(=O)N[C@@H](Cc1ccc(O)cc1)C(=O)NCC(N)=O [P1] (H-[12Ado]VLLRALARKITLGIKKYG-NH2)	1.02	26.6 µM	1.2	3 µM	170	monophasic behavior	2.3	8.4 µM	–	–	–	–	–	–	–	–
CILRWLARKIPWHAKKYG [P2, designed 18-residue MAP-family-like peptide, N-terminal amino-lauric acid and C-terminal amide]	–	–	–	–	–	–	–	–	NA (NA-inactive upto 100μM)	12.5–25^* μM	50–100^* μM	50–100^* μM	–	–	–	–
VFLRILVRKIAPGVKKYG [P3, designed 18-residue MAP-family-like peptide, N-terminal amino-lauric acid and C-terminal amide]	–	–	–	–	–	–	–	–	NA (NA-inactive upto 100μM)	50–100^* μM	–	–	NA (NA-inactive upto 100μM)	NA (NA-inactive upto 100μM)	–	–
CC[C@H](C)[C@H](NC(=O)[C@H](CCCCN)NC(=O)[C@H](CCCNC(=N)N)NC(=O)CNC(=O)[C@H](CC(C)C)NC(=O)[C@H](CO)NC(=O)[C@H](CCCNC(=N)N)NC(=O)[C@H](CC(C)C)NC(=O)CNC(=O)CNC(=O)CCCCCCCCCCCN)C(=O)N[C@@H](CC(C)C)C(=O)N[C@@H](CCCNC(=N)N)C(=O)N[C@@H](C)C(=O)N[C@@H](Cc1c[nH]c2ccccc12)C(=O)N[C@@H](CCCCN)C(=O)N[C@@H](CCCCN)C(=O)N[C@@H](Cc1ccc(O)cc1)C(=O)NCC(N)=O [BMAP28(1–18), reference compound] (H-[12Ado]GGLRSLGRKILRAWKKYG-NH2; N-terminus and C-terminus assumed)	3.07	2.2 µM	2.5	1.4 µM	61.4	biphasic behavior	2.4	3.1 µM	–	–	–	–	–	–	about 40 s	about 60 h^-1
